This passage reports viability and IC50 results from ChEMBL document CHEMBL2203001, “Flavonoid glycosides from the leaves of Allium victorialis var. platyphyllum and their anti-neuroinflammatory effects” (Bioorg Med Chem Lett, 2012).

Series [1] can be described thus: Cytotoxicity against mouse BV2 cells assessed as cell viability at 20 uM by MTT assay relative to LPS-treated cells. The settings on record: read-out: Activity. In kind it is cell-based, BV-2. A general note: Tetrazolium dyes change colour on reduction, which living cells bring about.
For series [2], the system named is BV-2. Description: Antineuroinflammatory activity against mouse BV2 cells assessed as inhibition of LPS-induced nitric oxide production after 24 hrs by Griess method. In kind it is functional, cell-based. The settings on record: BV-2, 24 h.

By IC50 is commonly meant the concentration needed to halve the response being measured. With `O=c1c(O[C@@H]2O[C@H](CO)[C@@H](O)[C@H](O)[C@H]2O)c(-c2ccc(O[C@@H]3O[C@H](CO)[C@@H](O)[C@H](O)[C@H]3O)c(O)c2)oc2cc(O)cc(O)c12`, in series [1], the viability at 20 µM worked out at 100%. Moreover, the IC50 in series [2] was 45.5 µM.
For `COc1cc(/C=C/C(=O)O[C@H]2[C@H](Oc3cc(O)c4c(=O)c(O[C@@H]5O[C@H](CO)[C@@H](O)[C@H](O)[C@H]5O)c(-c5ccc(O)cc5)oc4c3)O[C@H](CO)[C@@H](O)[C@@H]2O)ccc1O` the same measures were 106% and 21.5 µM.
As for `O=c1c(O[C@@H]2O[C@H](CO)[C@@H](O)[C@H](O)[C@H]2O)c(-c2ccc(O[C@@H]3O[C@H](CO)[C@@H](O)[C@H](O)[C@H]3O)cc2)oc2cc(O[C@@H]3O[C@H](CO)[C@@H](O)[C@H](O)[C@H]3O)cc(O)c12`, in series [1], the viability at 20 µM was 102%. Besides, in series [2], the concentration for half-maximal inhibition (IC50) came out at 33 µM.
Regarding `COc1cc(/C=C/C(=O)O[C@H]2[C@H](Oc3c(-c4ccc(O[C@@H]5O[C@H](CO)[C@@H](O)[C@H](O)[C@H]5O)cc4)oc4cc(O[C@@H]5O[C@H](CO)[C@@H](O)[C@H](O)[C@H]5O)cc(O)c4c3=O)O[C@H](CO)[C@@H](O)[C@@H]2O)ccc1O`, the viability at 20 µM in series [1] was 101%. Further, the IC50 in series [2] stood at 43.4 µM.
The matching figures for `O=c1c(O[C@@H]2O[C@H](CO)[C@@H](O)[C@H](O)[C@H]2O)c(-c2ccc(O[C@@H]3O[C@H](CO)[C@@H](O)[C@H](O)[C@H]3O)cc2)oc2cc(O)cc(O)c12`: 99.1% and 170 µM.
The matching figures for `O=c1c(O[C@@H]2O[C@H](CO)[C@@H](O)[C@H](O)[C@H]2O)c(-c2ccc(O)cc2)oc2cc(O[C@@H]3O[C@H](CO)[C@@H](O)[C@H](O)[C@H]3O)cc(O)c12`: 106% and 28.9 µM.
For `O=c1c(O)c(-c2ccc(O[C@@H]3O[C@H](CO)[C@@H](O)[C@H](O)[C@H]3O)c(O)c2)oc2cc(O[C@@H]3O[C@H](CO)[C@@H](O)[C@H](O)[C@H]3O)cc(O)c12` the same measures were 105% and 51.7 µM.
As for `O=C(/C=C/c1ccc(O)cc1)O[C@H]1[C@H](Oc2c(-c3ccc(O)cc3)oc3cc(O[C@@H]4O[C@H](CO)[C@@H](O)[C@H](O)[C@H]4O)cc(O)c3c2=O)O[C@H](CO)[C@@H](O)[C@@H]1O`, the viability at 20 µM in series [1] came out at 105%. For the same molecule, in series [2], the concentration for half-maximal inhibition (IC50) was found to be 47.2 µM.
Turning to `O=c1c(O)c(-c2ccc(O)cc2)oc2cc(O[C@@H]3O[C@H](CO)[C@@H](O)[C@H](O)[C@H]3O)cc(O)c12`, the viability at 20 µM in series [1] is 107%. The IC50 in series [2] amounted to 39.1 µM.
For `O=C(/C=C/c1ccc(O)cc1)O[C@H]1[C@H](Oc2c(-c3ccc(O[C@@H]4O[C@H](CO)[C@@H](O)[C@H](O)[C@H]4O)cc3)oc3cc(O)cc(O)c3c2=O)O[C@H](CO)[C@@H](O)[C@@H]1O` [ALLIVICTOSIDE A] the same measures were 109% and 55.6 µM.
With `COc1cc(/C=C/C(=O)O[C@H]2[C@H](Oc3c(-c4ccc(O[C@@H]5O[C@H](CO)[C@@H](O)[C@H](O)[C@H]5O)cc4)oc4cc(O)cc(O)c4c3=O)O[C@H](CO)[C@@H](O)[C@@H]2O)ccc1O` [ALLIVICTOSIDE B], the viability at 20 µM in series [1] turned out to be 107%. Moreover, in series [2], the IC50 came to 20.7 µM.
For `O=C(/C=C/c1ccc(O)cc1)O[C@H]1[C@H](Oc2c(-c3ccc(O[C@@H]4O[C@H](CO)[C@@H](O)[C@H](O)[C@H]4O)cc3)oc3cc(O[C@@H]4O[C@H](CO)[C@@H](O)[C@H](O)[C@H]4O)cc(O)c3c2=O)O[C@H](CO)[C@@H](O)[C@@H]1O` [ALLIVICTOSIDE C] the same measures were 104% and 44 µM.
For the molecule `O=C(/C=C\c1ccc(O)cc1)O[C@H]1[C@H](Oc2c(-c3ccc(O[C@@H]4O[C@H](CO)[C@@H](O)[C@H](O)[C@H]4O)cc3)oc3cc(O[C@@H]4O[C@H](CO)[C@@H](O)[C@H](O)[C@H]4O)cc(O)c3c2=O)O[C@H](CO)[C@@H](O)[C@@H]1O` [ALLIVICTOSIDE D], in series [1], the viability at 20 µM was found to be 100%. Further, the half-inhibitory concentration (IC50) in series [2] was determined as 48.5 µM.
Regarding `O=C(/C=C/c1ccc(O)cc1)O[C@@H]1[C@@H](O)[C@H](Oc2c(-c3ccc(O[C@@H]4O[C@H](CO)[C@@H](O)[C@H](O)[C@H]4O)cc3)oc3cc(O[C@@H]4O[C@H](CO)[C@@H](O)[C@H](O)[C@H]4O)cc(O)c3c2=O)O[C@H](CO)[C@H]1O` [ALLIVICTOSIDE E], in series [1], the viability at 20 µM came out at 104%. Moreover, in series [2], the IC50 was 49.5 µM.
The matching figures for `COc1cc(/C=C/C(=O)O[C@H]2[C@H](Oc3c(-c4ccc(O)cc4)oc4cc(O[C@@H]5O[C@H](CO)[C@@H](O)[C@H](O)[C@H]5O)cc(O)c4c3=O)O[C@H](CO)[C@@H](O)[C@@H]2O)ccc1O` [ALLIVICTOSIDE F]: 100% and 20.4 µM.
The matching figures for `O=C(/C=C/c1ccc(O)cc1)O[C@H]1[C@H](Oc2c(-c3ccc(O[C@H]4O[C@@H](CO)[C@H](O)[C@@H](O)[C@@H]4O)c(O)c3)oc3cc(O)cc(O)c3c2=O)O[C@H](CO)[C@@H](O)[C@@H]1O` [ALLIVICTOSIDE G]: 101% and above 200 µM.
For the molecule `COc1cc(/C=C/C(=O)O[C@H]2[C@H](Oc3c(-c4ccc(O[C@H]5O[C@@H](CO)[C@H](O)[C@@H](O)[C@@H]5O)c(O)c4)oc4cc(O[C@@H]5O[C@H](CO)[C@@H](O)[C@H](O)[C@H]5O)cc(O)c4c3=O)O[C@H](CO)[C@@H](O)[C@@H]2O)ccc1O` [ALLIVICTOSIDE H], the viability at 20 µM in series [1] turned out to be 105%. In series [2], the IC50 was 29.9 µM.
In the case of `O=c1c(O[C@@H]2O[C@H](CO)[C@@H](O)[C@H](O)[C@H]2O)c(-c2ccc(O)cc2)oc2cc(O)cc(O)c12` [ASTRAGALIN], the viability at 20 µM in series [1] worked out at 106%. In addition, in series [2], the half-inhibitory concentration (IC50) stood at 77.4 µM.
For `O=c1c(O[C@@H]2O[C@H](CO)[C@@H](O)[C@H](O)[C@H]2O)c(-c2ccc(O)c(O)c2)oc2cc(O)cc(O)c12` [ISOQUERCETIN] the same measures were 97.3% and 19.8 µM.
Take `C[C@@H]1O[C@@H](OC[C@H]2O[C@@H](Oc3c(-c4ccc(O)cc4)oc4cc(O)cc(O)c4c3=O)[C@H](O)[C@@H](O)[C@@H]2O)[C@H](O)[C@H](O)[C@H]1O` [NICOTIFLOROSIDE]: the viability at 20 µM in series [1] is 104%. In addition, the IC50 in series [2] came out at 122 µM.
With `CNC(=N)NCCC[C@H](N)C(=O)O` [TILARGININE], the viability at 20 µM in series [1] is 98.2%. In series [2], the concentration for half-maximal inhibition (IC50) was 16.3 µM.
